According to the supplement of paper PMC9938120:

Columns and labels:
Assay in all cases: drug sensitivity score (DSS3, normalised partial AUC of % inhibition dose-response) (DSS (score)); higher = more sensitive (stronger inhibition of viability); extreme values may be limits of the assay
FMOC02_1 = patient-derived low-grade serous ovarian cancer cells; details: 72 h; library: FO5A; assay format: 2D, 384-well, CellTiter-Glo
Outline: (§1)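 Early-passage (under 10) patient-derived ovarian cancer cells were dispensed onto 384-well flat clear-bottom plates pre-plated with compounds at five concentrations spanning a 10,000-fold range, then incubated 72 h at 37 °C, 5% CO2. Viability was read with CellTiter-Glo, and the data were processed in Breeze. The drug sensitivity score is a partial area under the percent-inhibition dose-response curve divided by the log of the upper asymptote, with higher values meaning greater sensitivity.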

FMOC02_2 = patient-derived low-grade serous ovarian cancer cells; details: 72 h; library: FO5A; assay format: 2D, 384-well, CellTiter-Glo
Outline: as §1

FMOC02_3 = patient-derived low-grade serous ovarian cancer cells; details: 72 h; library: FO5A; assay format: 2D, 384-well, CellTiter-Glo
Outline: as §1

FMOC03 = patient-derived mucinous ovarian cancer cells; details: 72 h; library: FO5A; assay format: 2D, 384-well, CellTiter-Glo
Outline: as §1

FMOC04 = patient-derived high-grade serous ovarian cancer cells; details: 72 h; library: FO5A; assay format: 2D, 384-well, CellTiter-Glo
Outline: as §1

FMOC06 = patient-derived mucinous ovarian cancer cells; details: 72 h; library: FO5A; assay format: 2D, 384-well, CellTiter-Glo
Outline: as §1

FMOC09 = patient-derived high-grade serous ovarian cancer cells; details: 72 h; library: FO5A; assay format: 2D, 384-well, CellTiter-Glo
Outline: as §1

FMOC11 = patient-derived high-grade serous ovarian cancer cells; details: 72 h; library: FO5A; assay format: 2D, 384-well, CellTiter-Glo
Outline: as §1

FMOC14 = patient-derived high-grade serous ovarian cancer cells; details: 72 h; library: FO5A; assay format: 2D, 384-well, CellTiter-Glo
Outline: as §1

FMOC17 = patient-derived low-grade serous ovarian cancer cells; details: 72 h; library: FO5A; assay format: 2D, 384-well, CellTiter-Glo
Outline: as §1

FMOC22 = patient-derived mucinous ovarian cancer cells; details: 72 h; library: FO5A; assay format: 2D, 384-well, CellTiter-Glo
Outline: as §1

FMOC24 = patient-derived high-grade serous ovarian cancer cells; details: 72 h; library: FO5A; assay format: 2D, 384-well, CellTiter-Glo
Outline: as §1

FMOC25_1 = patient-derived low-grade serous ovarian cancer cells; details: 72 h; library: FO4B; assay format: 2D, 384-well, CellTiter-Glo
Outline: as §1

FMOC25_2 = patient-derived low-grade serous ovarian cancer cells; details: 72 h; library: FO5A; assay format: 2D, 384-well, CellTiter-Glo
Outline: as §1

FMOC27 = patient-derived low-grade serous ovarian cancer cells; details: 72 h; library: FO5A; assay format: 2D, 384-well, CellTiter-Glo
Outline: as §1

FMOC28 = patient-derived low-grade serous ovarian cancer cells; details: 72 h; library: FO5A; assay format: 2D, 384-well, CellTiter-Glo
Outline: as §1

SMILES	drug sensitivity score (FMOC02_1)	drug sensitivity score (FMOC02_2)	drug sensitivity score (FMOC02_3)	drug sensitivity score (FMOC03)	drug sensitivity score (FMOC04)	drug sensitivity score (FMOC06)	drug sensitivity score (FMOC09)	drug sensitivity score (FMOC11)	drug sensitivity score (FMOC14)	drug sensitivity score (FMOC17)	drug sensitivity score (FMOC22)	drug sensitivity score (FMOC24)	drug sensitivity score (FMOC25_1)	drug sensitivity score (FMOC25_2)	drug sensitivity score (FMOC27)	drug sensitivity score (FMOC28)
Cc1cn(-c2cc(NC(=O)c3ccc(C)c(Nc4nccc(-c5cccnc5)n4)c3)cc(C(F)(F)F)c2)cn1 [Nilotinib]	3	1.3	0	3.5	0	3.4	0.7	4.6	0.9	2.4	1	3.7	3.4	1.5	2.3	5.6
CNC(=O)c1ccc(N2C(=S)N(c3ccc(C#N)c(C(F)(F)F)c3)C(=O)C2(C)C)cc1F [Enzalutamide]	0	0	0	0	0	0.1	0	0	0	0	0	0	0	0	0.1	0
COc1cc(N2CCN(C)CC2)ccc1Nc1nccc(-c2cn(C)c3cnccc23)n1 [AZ191]	4	3.8	2.9	0.5	0.2	1.9	2.2	1.4	0.4	1.7	0.7	6.15	0	1.5	1.6	2.3
CC(=O)N(O)CCCCCNC(=O)CCC(=O)N(O)CCCCCNC(=O)CCC(=O)N(O)CCCCCN [Deferoxamine]	0	0	0.2	4.1	0	1.4	1.4	4.5	1.2	0	1.1	0	1.1	0	0	0
CN(C)C(=O)c1cc2cnc(Nc3ccc(N4CCNCC4)cn3)nc2n1C1CCCC1 [Ribociclib]	3.1	1.8	4.4	0.5	0.05	0.6	0	0	0	0.3	0	1.8	0	0.8	0.6	1.7
Cc1cc2c(F)c(Oc3ncnn4cc(OC[C@@H](C)O)c(C)c34)ccc2[nH]1 [Brivanib]	0	0	0	0	0	0	0	0	0	0	0	0	0	0	0	0
CC[C@@H]1C(=O)OC[C@@H]1Cc1cncn1C [Pilocarpine]	0	0.3	0	0	0	0	0	0	0	0	0	2.65	0	0	0	0
CC(C)(C#N)c1cc(Cn2cncn2)cc(C(C)(C)C#N)c1 [Anastrozole]	0	0	0	0	0	0	0	0	0	0	0	0	0	0	0	0
CC1(C)CNc2cc(NC(=O)c3cccnc3NCc3ccncc3)ccc21 [Motesanib]	0	0.5	2.9	0	0	1.1	0	0.2	0	0	0	0.15	1	0.1	0.6	2.4
O=C(c1ccc(C(=O)N2CCC(N3CCCC3)CC2)c(Nc2ccccc2)c1)N1CCC(N2CCCC2)CC1 [UNC1215]	0	0.3	0	0	0	0	0	0	0	0	0	0	0	0	0	0
CC(C)N(C[C@H]1O[C@@H](n2cnc3c(N)ncnc32)[C@H](O)[C@@H]1O)[C@H]1C[C@@H](CCc2nc3cc(C(C)(C)C)ccc3[nH]2)C1 [Pinometostat]	0	0	0	0	0	0	0	0	0	0	0	0	0	0.2	0	2.1
NCC(=O)Nc1ccc(-n2nc(C(F)(F)F)cc2-c2ccc3c(ccc4ccccc43)c2)cc1	6.9	4.3	1.8	0.4	1.2	0	0	0	0	1.9	0.8	3.05	7.9	5.2	0	4.5
